Consider eight cell lines from the supplement of paper PMC10307832.

Holding throughout (assay): relative viability (nuclei count vs DMSO), 5 days (fraction); higher = more cells survive
Compound in the test “Daporinad + Luminespib”: O=C(/C=C/c1cccnc1)NCCCCC1CCN(C(=O)c2ccccc2)CC1 [Daporinad] + CCNC(=O)c1noc(-c2cc(C(C)C)c(O)cc2O)c1-c1ccc(CN2CCOCC2)cc1 [Luminespib] (partner 0.01 µM)
The method in brief: (§1)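 Lung cancer cell lines in 1536-well plates got either a single drug or a fixed anchor-drug dose together with five library-drug doses (not always all listed) in √10 steps, by pin tool, on the day after seeding. Nuclei were counted after 5 days, and relative viability is the treated-to-vehicle ratio of nuclei counts. Values are medians of duplicate plates.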

Compound in the test “R406 + Crizotinib”: COc1cc(Nc2ncc(F)c(Nc3ccc4c(n3)NC(=O)C(C)(C)O4)n2)cc(OC)c1OC [R406] + C[C@@H](Oc1cc(-c2cnn(C3CCNCC3)c2)cnc1N)c1c(Cl)ccc(F)c1Cl [Crizotinib] (partner 1 µM)
An outline of the steps:
as §1

Compound in the test “Daporinad + Dasatinib”: O=C(/C=C/c1cccnc1)NCCCCC1CCN(C(=O)c2ccccc2)CC1 [Daporinad] + Cc1nc(Nc2ncc(C(=O)Nc3c(C)cccc3Cl)s2)cc(N2CCN(CCO)CC2)n1 [Dasatinib] (partner 0.075 µM)
An outline of the steps: as §1

Compound in the test “Daporinad + Navitoclax”: O=C(/C=C/c1cccnc1)NCCCCC1CCN(C(=O)c2ccccc2)CC1 [Daporinad] + CC1(C)CCC(c2ccc(Cl)cc2)=C(CN2CCN(c3ccc(C(=O)NS(=O)(=O)c4ccc(N[C@H](CCN5CCOCC5)CSc5ccccc5)c(S(=O)(=O)C(F)(F)F)c4)cc3)CC2)C1 [Navitoclax] (partner 0.5 µM)
An outline of the steps:
as §1

Take NCI-H1993: the relative viability in the test with Daporinad + Luminespib (first compound 0.0005 µM) was determined as 0.795; with Daporinad + Luminespib (first compound 0.001581 µM), 0.797; with Daporinad + Luminespib (first compound 0.005 µM), 0.787; in the test with Daporinad + Luminespib (first compound 0.01581 µM), 0.891; with R406 + Crizotinib (first compound 0.08 µM), 0.933; in the test with R406 + Crizotinib (first compound 0.253 µM) it was 0.866. Further, the relative viability with R406 + Crizotinib (first compound 0.8 µM) was 0.809; in the test with R406 + Crizotinib (first compound 2.53 µM), 0.75; in the test with R406 + Crizotinib (first compound 8 µM), 0.661; in the test with Daporinad + Dasatinib (first compound 0.0005 µM), 0.548; with Daporinad + Dasatinib (first compound 0.001581 µM), 0.481; in the test with Daporinad + Dasatinib (first compound 0.005 µM), 0.664. Moreover, the relative viability in the test with Daporinad + Dasatinib (first compound 0.01581 µM) was determined as 0.676; in the test with Daporinad + Navitoclax (first compound 0.0005 µM), 0.877; with Daporinad + Navitoclax (first compound 0.001581 µM), 0.753; in the test with Daporinad + Navitoclax (first compound 0.005 µM) it was 0.982; with Daporinad + Navitoclax (first compound 0.01581 µM), 1.16.
Turning to NCI-H2009, the relative viability in the test with Daporinad + Luminespib (first compound 0.0005 µM) was 1.02; with Daporinad + Luminespib (first compound 0.001581 µM) it was 1.08; with Daporinad + Luminespib (first compound 0.005 µM) it was 1; with Daporinad + Luminespib (first compound 0.01581 µM), 0.702; with R406 + Crizotinib (first compound 0.08 µM) it was 1.07; in the test with R406 + Crizotinib (first compound 0.253 µM), 1.02. The relative viability in the test with R406 + Crizotinib (first compound 0.8 µM) amounted to 1.13; in the test with R406 + Crizotinib (first compound 2.53 µM) it was 0.815; in the test with R406 + Crizotinib (first compound 8 µM), 0.301; with Daporinad + Dasatinib (first compound 0.0005 µM), 0.295; with Daporinad + Dasatinib (first compound 0.001581 µM) it was 0.337; with Daporinad + Dasatinib (first compound 0.005 µM) it was 0.277. Further, the relative viability in the test with Daporinad + Dasatinib (first compound 0.01581 µM) was 0.22; with Daporinad + Navitoclax (first compound 0.0005 µM), 1.17; in the test with Daporinad + Navitoclax (first compound 0.001581 µM) it was 1.2; with Daporinad + Navitoclax (first compound 0.005 µM) it was 1.22; in the test with Daporinad + Navitoclax (first compound 0.01581 µM), 0.812.
NCI-H2023: the relative viability in the test with Daporinad + Luminespib (first compound 0.0005 µM) came to 0.727; with Daporinad + Luminespib (first compound 0.001581 µM) it was 0.759; with Daporinad + Luminespib (first compound 0.005 µM) it was 0.918; with Daporinad + Luminespib (first compound 0.01581 µM), 0.717; in the test with R406 + Crizotinib (first compound 0.08 µM), 0.705; in the test with R406 + Crizotinib (first compound 0.253 µM) it was 0.855. For the same cell line, the relative viability with R406 + Crizotinib (first compound 0.8 µM) amounted to 0.681; in the test with R406 + Crizotinib (first compound 2.53 µM) it was 0.254; with R406 + Crizotinib (first compound 8 µM), 0.145; in the test with Daporinad + Dasatinib (first compound 0.0005 µM) it was 0.504; with Daporinad + Dasatinib (first compound 0.001581 µM) it was 0.711; with Daporinad + Dasatinib (first compound 0.005 µM), 0.631. Moreover, the relative viability came to 0.72 with Daporinad + Dasatinib (first compound 0.01581 µM); 0.995 in the test with Daporinad + Navitoclax (first compound 0.0005 µM); 1.14 in the test with Daporinad + Navitoclax (first compound 0.001581 µM); 0.958 with Daporinad + Navitoclax (first compound 0.005 µM); 0.995 in the test with Daporinad + Navitoclax (first compound 0.01581 µM).
As for NCI-H2085, the relative viability is 0.386 with Daporinad + Luminespib (first compound 0.0005 µM); 0.434 with Daporinad + Luminespib (first compound 0.001581 µM); 0.549 in the test with Daporinad + Luminespib (first compound 0.005 µM); 0.503 with Daporinad + Luminespib (first compound 0.01581 µM); 0.841 with R406 + Crizotinib (first compound 0.08 µM); 0.974 in the test with R406 + Crizotinib (first compound 0.253 µM). The relative viability with R406 + Crizotinib (first compound 0.8 µM) turned out to be 0.785; in the test with R406 + Crizotinib (first compound 2.53 µM), 0.887; in the test with R406 + Crizotinib (first compound 8 µM), 0.566; with Daporinad + Dasatinib (first compound 0.0005 µM), 0.268; with Daporinad + Dasatinib (first compound 0.001581 µM) it was 0.244; with Daporinad + Dasatinib (first compound 0.005 µM), 0.267. Besides, the relative viability was 0.284 with Daporinad + Dasatinib (first compound 0.01581 µM); 1.17 in the test with Daporinad + Navitoclax (first compound 0.0005 µM); 1.25 with Daporinad + Navitoclax (first compound 0.001581 µM); 1.23 in the test with Daporinad + Navitoclax (first compound 0.005 µM); 1.03 with Daporinad + Navitoclax (first compound 0.01581 µM).
For the cell line NCI-H2087, the relative viability in the test with Daporinad + Luminespib (first compound 0.0005 µM) came out at 0.178; in the test with Daporinad + Luminespib (first compound 0.001581 µM), 0.177; in the test with Daporinad + Luminespib (first compound 0.005 µM), 0.154; with Daporinad + Luminespib (first compound 0.01581 µM), 0.159; in the test with R406 + Crizotinib (first compound 0.08 µM), 0.825; in the test with R406 + Crizotinib (first compound 0.253 µM), 1.26. Further, the relative viability with R406 + Crizotinib (first compound 0.8 µM) was determined as 0.899; with R406 + Crizotinib (first compound 2.53 µM), 0.983; with R406 + Crizotinib (first compound 8 µM), 0.936; with Daporinad + Dasatinib (first compound 0.0005 µM), 0.787; with Daporinad + Dasatinib (first compound 0.001581 µM), 1.17; with Daporinad + Dasatinib (first compound 0.005 µM), 0.934. Further, the relative viability was 0.923 in the test with Daporinad + Dasatinib (first compound 0.01581 µM); 1.05 with Daporinad + Navitoclax (first compound 0.0005 µM); 0.881 with Daporinad + Navitoclax (first compound 0.001581 µM); 1.03 with Daporinad + Navitoclax (first compound 0.005 µM); 0.912 with Daporinad + Navitoclax (first compound 0.01581 µM).
Turning to NCI-H2126, the relative viability was found to be 0.883 with Daporinad + Luminespib (first compound 0.0005 µM); 0.897 with Daporinad + Luminespib (first compound 0.001581 µM); 0.921 with Daporinad + Luminespib (first compound 0.005 µM); 0.924 in the test with Daporinad + Luminespib (first compound 0.01581 µM); 0.965 with R406 + Crizotinib (first compound 0.08 µM); 1.11 in the test with R406 + Crizotinib (first compound 0.253 µM). Moreover, the relative viability with R406 + Crizotinib (first compound 0.8 µM) came out at 1.01; with R406 + Crizotinib (first compound 2.53 µM) it was 1.02; with R406 + Crizotinib (first compound 8 µM) it was 0.995; in the test with Daporinad + Dasatinib (first compound 0.0005 µM), 0.681; in the test with Daporinad + Dasatinib (first compound 0.001581 µM), 0.57; with Daporinad + Dasatinib (first compound 0.005 µM) it was 0.547. Also, the relative viability turned out to be 0.727 with Daporinad + Dasatinib (first compound 0.01581 µM); 0.914 with Daporinad + Navitoclax (first compound 0.0005 µM); 0.751 with Daporinad + Navitoclax (first compound 0.001581 µM); 0.845 with Daporinad + Navitoclax (first compound 0.005 µM); 0.874 with Daporinad + Navitoclax (first compound 0.01581 µM).
For NCI-H2170, the relative viability is 0.817 in the test with Daporinad + Luminespib (first compound 0.0005 µM); 0.722 with Daporinad + Luminespib (first compound 0.001581 µM); 0.417 in the test with Daporinad + Luminespib (first compound 0.005 µM); 0.734 with Daporinad + Luminespib (first compound 0.01581 µM); 1.16 with R406 + Crizotinib (first compound 0.08 µM); 1.25 with R406 + Crizotinib (first compound 0.253 µM). The relative viability with R406 + Crizotinib (first compound 0.8 µM) is 1.15; with R406 + Crizotinib (first compound 2.53 µM), 0.815; in the test with R406 + Crizotinib (first compound 8 µM), 0.495; with Daporinad + Dasatinib (first compound 0.0005 µM), 0.631; in the test with Daporinad + Dasatinib (first compound 0.001581 µM) it was 0.465; with Daporinad + Dasatinib (first compound 0.005 µM), 0.616. Besides, the relative viability with Daporinad + Dasatinib (first compound 0.01581 µM) turned out to be 0.566; with Daporinad + Navitoclax (first compound 0.0005 µM), 0.619; with Daporinad + Navitoclax (first compound 0.001581 µM) it was 0.561; with Daporinad + Navitoclax (first compound 0.005 µM) it was 0.637; in the test with Daporinad + Navitoclax (first compound 0.01581 µM) it was 0.825.
With NCI-H2228, the relative viability with Daporinad + Luminespib (first compound 0.0005 µM) amounted to 0.17; with Daporinad + Luminespib (first compound 0.001581 µM) it was 0.173; with Daporinad + Luminespib (first compound 0.005 µM), 0.221; with Daporinad + Luminespib (first compound 0.01581 µM), 0.163; with R406 + Crizotinib (first compound 0.08 µM), 0.572; in the test with R406 + Crizotinib (first compound 0.253 µM), 0.435. Moreover, the relative viability with R406 + Crizotinib (first compound 0.8 µM) was 0.528; in the test with R406 + Crizotinib (first compound 2.53 µM) it was 0.164; with R406 + Crizotinib (first compound 8 µM) it was 0.101; with Daporinad + Dasatinib (first compound 0.0005 µM) it was 0.543; with Daporinad + Dasatinib (first compound 0.001581 µM) it was 0.563; with Daporinad + Dasatinib (first compound 0.005 µM), 0.569. In addition, the relative viability turned out to be 0.554 with Daporinad + Dasatinib (first compound 0.01581 µM); 1.05 with Daporinad + Navitoclax (first compound 0.0005 µM); 1.1 in the test with Daporinad + Navitoclax (first compound 0.001581 µM); 1.09 with Daporinad + Navitoclax (first compound 0.005 µM); 0.945 with Daporinad + Navitoclax (first compound 0.01581 µM).
